Structures are written as SMILES.

In the first test the target is T1, human recombinant Yes [a.a. 2–543 (end)] (Homo sapiens, UniProt P07947).
T1 construct: human recombinant Yes [a.a; 2–543 (end)]; purchased BPS Bioscience 40488
T1 sequence (P07947 2-543): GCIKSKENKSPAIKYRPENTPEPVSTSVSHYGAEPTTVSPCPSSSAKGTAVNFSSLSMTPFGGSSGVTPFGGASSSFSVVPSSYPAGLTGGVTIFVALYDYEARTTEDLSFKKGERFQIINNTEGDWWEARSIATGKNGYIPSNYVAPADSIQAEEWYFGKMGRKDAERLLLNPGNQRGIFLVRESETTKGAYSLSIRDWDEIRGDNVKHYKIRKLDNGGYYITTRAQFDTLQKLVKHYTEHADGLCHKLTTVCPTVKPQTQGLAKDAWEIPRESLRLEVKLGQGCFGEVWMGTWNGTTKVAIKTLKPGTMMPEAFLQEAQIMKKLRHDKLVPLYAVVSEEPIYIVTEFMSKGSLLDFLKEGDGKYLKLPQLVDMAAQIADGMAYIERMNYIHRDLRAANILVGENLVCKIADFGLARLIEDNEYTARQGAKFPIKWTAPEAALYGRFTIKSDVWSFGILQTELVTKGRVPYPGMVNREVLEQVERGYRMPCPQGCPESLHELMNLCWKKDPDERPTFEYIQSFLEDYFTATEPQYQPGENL
As to the kind of experiment: ADP-Glo kinase assay, inhibition rates of Yes phosphorylation activity (first and second screening). Format: biochemical. The conditions noted are these: first screening; mean of n = 4 wells; 10 μmol L−1 compound. Summed up: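 Hits from a first pass were rescreened after re-dissolution from fresh powder. The first pass reported the mean inhibition rate of quadruplicate wells per compound. Activity was that of recombinant human Yes [a.a. 2–543] kinase, read out with the ADP-Glo ADP-detection method.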
(In ADP-Glo the light output rises with the ADP produced.)
As for `CS(=O)(=O)c1ccc(C(=O)NCc2ccc(-n3ccnc3)c(F)c2)cc1` [Compound Z826157056], the “First screening IR (inhibition rate)” value is recorded as -29%.

In the case of `CCn1cnc2c1c(=O)n(CC(=O)N1CCC(Cc3ccccc3)CC1)c(=O)n2Cc1ccccc1` [Compound Z24103907], the “First screening IR (inhibition rate)” value is recorded as 9%.

With `CCN(C1CCS(=O)(=O)C1)S(=O)(=O)c1ccc(C)cc1` (stereo not drawn) [Compound Z45467092], the “First screening IR (inhibition rate)” value turned out to be 9%.

As for `COC(=O)c1c2c(nc3ccccc13)/C(=C\c1ccc3c(c1)OCO3)CCC2` [Compound Z19539846], the “First screening IR (inhibition rate)” value was -2%.

With `O=C(Nc1ccc(S(=O)(=O)Nc2nccs2)cc1)c1cnn(Cc2ccccc2)c1` [Compound Z100622740], the “First screening IR (inhibition rate)” value is given as 61%.

`Cn1c(=O)c2ccc(C(=O)NCc3cc(Cl)ccn3)nc2n(C)c1=O` [Compound Z1574547064]: the “First screening IR (inhibition rate)” value is reported as -2%.

Turning to `Cc1nc(-c2ccc(Br)cc2)nc(NCCO)c1C` [Compound Z1037335626], the “First screening IR (inhibition rate)” value is reported as 13%.

On to `CC(O)CNc1nc2ccccc2n1CC(=O)NCc1cccs1` (stereo not drawn) [Compound Z25766910], for which the “First screening IR (inhibition rate)” value is reported as -11%.

For the compound `CN(C)S(=O)(=O)c1ccc(Cl)c(S(=O)(=O)N(C)C)c1` [Compound Z56877204], the “First screening IR (inhibition rate)” value was 7%.

For the compound `COc1ccc(/C(O)=C2\C(=O)C(=O)N(CCCn3ccnc3)C2c2cccnc2)cc1OC` (stereo not drawn) [Compound Z335452550], the “First screening IR (inhibition rate)” value is -9%.

Turning to `COc1ccc(-n2c(-c3ccccc3)cn3c4c(=O)n(CCN5CCCCC5)c(=O)n(C)c4nc23)cc1` [Compound Z241121498], the “First screening IR (inhibition rate)” value is reported as -22%.

With `O=c1[nH]c2ccccc2c2nc(-c3ccc(CSc4nc5ccccc5[nH]4)cc3)nn12` [Compound Z208192218], the “First screening IR (inhibition rate)” value came to 16%.

`Cc1c(C#N)c(NC(=O)CN2CCC(n3c(=O)[nH]c4ccccc43)CC2)n(Cc2cccs2)c1C` [Compound Z130194258]: the “First screening IR (inhibition rate)” value was found to be 22%.

With `CN(CCCc1nc2ccccc2[nH]1)C(=O)c1ccc(O)cc1F` [Compound Z1614685203], the “First screening IR (inhibition rate)” value came to 9%.

On to `c1ccc(Cn2cccn2)c(CNc2cncc(-n3cccn3)n2)c1` [Compound Z432289626], for which the “First screening IR (inhibition rate)” value worked out at 41%.

Turning to `CC(Oc1cccc(Cl)c1Cl)C(=O)Nc1ccc2nc[nH]c(=O)c2c1` (stereo not drawn) [Compound Z927306002], the “First screening IR (inhibition rate)” value is on record as -9%.

Take `Nc1c(Cl)cc(Nc2nccc(C(F)(F)F)n2)cc1Cl` [Compound Z318854232]: the “First screening IR (inhibition rate)” value was 7%.

`COc1ccc(-n2c(=O)c3ccccc3n3c(SCC(=O)NC(C)CCCC(C)C)nnc23)cc1` (stereo not drawn) [Compound Z97290306]: the “First screening IR (inhibition rate)” value is -3%.

Consider `CCCN(Cc1cccnc1OC)C1CCN(C(=O)c2ccccc2)CC1` [Compound Z1415907924], for which the “First screening IR (inhibition rate)” value is reported as 6%.

On to `FC(F)(F)c1ccnc(Nc2ccc3[nH]ncc3c2)n1` [Compound Z285702074], for which the “First screening IR (inhibition rate)” value is on record as 0%.

For `Cc1cccc(/C=N/Nc2ncnc3sc(C)c(C)c23)c1` [Compound Z49890788], the “First screening IR (inhibition rate)” value came out at 3%.

Turning to `CC(Nc1ccc2c(c1)OCCO2)C(=O)Nc1ccc(F)c(F)c1F` (stereo not drawn) [Compound Z44489053], the “First screening IR (inhibition rate)” value is 4%.

On to `CN(C)C(C)(C)CNC(=O)Cc1c[nH]c2cccc(Br)c12` [Compound Z1509620411], for which the “First screening IR (inhibition rate)” value is on record as -4%.

In the case of `Cc1ccc(N2C(=O)Cc3c2nc(N)c2c(N)nc(N4CCCC4)c(C#N)c32)cc1C` [Compound Z55589600], the “First screening IR (inhibition rate)” value is listed as 15%.

With `Cc1cccc(OCC(=O)Nc2ccc(SC(=O)N(C)C)cc2)c1` [Compound Z1126778839], the “First screening IR (inhibition rate)” value is given as -6%.

As for `NC(=O)c1cc(-c2ccccc2)nc2c1cnn2Cc1ccc(Cl)cc1` [Compound Z116821638], the “First screening IR (inhibition rate)” value stood at 1%.

Still in this test, the particulars now being: second screening, dissolved from fresh powder; n = 4; 10 μmol L−1 compound.
For `c1ccc(Cn2cccn2)c(CNc2cncc(-n3cccn3)n2)c1` [Compound Z432289626], the “Second screening IR (inhibition rate)” value stood at 18%.

The values are drawn from article PMC5607274, “An iterative compound screening contest method for identifying target protein inhibitors using the tyrosine-protein kinase Yes” (Scientific Reports, 2017).
